US20240082373A1, “COMPOSITIONS FOR CHIMERIC ANTIGEN RECEPTOR T CELL THERAPY AND USES THEREOF” (priority 2017, published 2024)

Experiments:
[1] = Trafficking to and retention in lymph nodes (IVIS imaging); assay type: in vivo, mice; settings: free FITC control
Description: Based on the results of Example 2, it was next determined whether the amphiphilic ligand conjugate DSPE-PEG-FITC could coat antigen presenting cells in lymph nodes (LN) to prime FITC-CAR-T cells in vivo. To assess DSPE-PEG-FITC trafficking to the lymph node and retention and uptake by APCs, C57BIU6 mice received varying doses of DSPE-PEG-FITC. Specifically, inguinal LN, auxiliary LN and lilac LN were harvested 24 hours after administration of 2 nmol, 5 nmol, or 10 nmol doses of DSPE-PEG-FITC was into the tail-veil of the mice. Free FITC was used as control. Mice were sacrificed and LNs were removed at different time point for IVIS imaging (excitation 465 nm, emission 520 nm) to monitor LN retention of FITC signal.
While FITC signal was almost lost at the lowest dose (2 nmol) after 4 days, the signal was retained for more than 21 days at high dose (10 nmol) of DSPE-PEG-FITC (FIG. 3A). Free FITC signal was lost in 24 hours (FIG. 3A).

FITC-CAR-T = FITC-CAR-T proliferation in lymph nodes after vaccination (CTV-labeled cells); assay type: in vivo, C57Bl/6 mice; settings: adjuvant alone, 25 ug
Description: To assess whether DSPE-PEG-FITC accumulating on lymph node antigen presenting cells would lead to CAR T cell priming and how long this stimulatory effect would last for, at day 1, mice were administered PBS, c-di-GMP (25 ug), DSPE-PEG-FITC (10 nmol), or DSPE-PEG-FITC (10 nmol)+c-di-GMP (25 ug) into wildtype C57Bl/6 mice. After various time points, as indicated in the timeline in FIG. 7A, 2×10^6 CTV-labeled CAR-T cells were transferred into each mouse via tail-vein injection. CAR-T cells were titrated to be a mixture of CAR+ and CAR-cells at 1:1 ratio. After another 48 hours, mice were sacrificed and LNs were removed for FACS analysis.

[2] = mouse, in vivo
Description: One concern was that repeated vaccination may elicit antibody against FITC when conjugated to DSPE-PEG, thus blocking its stimulation to CAR in lymph nodes.

## fluorescein isothiocyanate [Free FITC]
[1]
  time in which FITC signal was lost in LN: ≤ 24 h

## Nc1nc2c(ncn2[C@@H]2O[C@@H]3COP(=O)(O)O[C@H]4[C@@H](O)[C@H](n5cnc6c(=O)[nH]c(N)nc65)O[C@@H]4COP(=O)(O)O[C@H]3[C@H]2O)c(=O)[nH]1 [c-di-GMP, cyclic-di-GMP]
FITC-CAR-T
  proliferation of CAR-T cells in LN: Minimal proliferation

B1: FITC-OVA: FITC conjugated to the carrier protein OVA (conjugate, UniProt P01012 2-386, looked up)
Ovalbumin: GSIGAASMEFCFDVFKELKVHHANENIFYCPIAIMSALAMVYLGAKDSTRTQINKVVRFDKLPGFGDSIEAQCGTSVNVHSSLRDILNQITKPNDVYSFSLASRLYAEERYPILPEYLQCVKELYRGGLEPINFQTAADQARELINSWVESQTNGIIRNVLQPSSVDSQTAMVLVNAIVFKGLWEKAFKDEDTQAMPFRVTEQESKPVQMMYQIGLFRVASMASEKMKILELPFASGTMSMLVLLPDEVSGLEQLESIINFEKLTEWTSSNVMEERKIKVYLPRMKMEEKYNLTSVLMAMGITDVFSSSANLSGISSAESLKISQAVHAAHAEINEAGREVVGSAEAGVDAASVSEEFRADHPFLFCIKHIATNAVLFFGRCVSP
modifications: FITC
[2]
  antibody response against FITC: no antibody response was observed
